For experiment [1], the system named is rRNA. Put plainly: Microplate fluorescence intensity with RNA dilutions. The following applies: dye 400 nM, RNA up to 1000 ng/mL in 1×TE, Ex/Em=620/660 nm, FIG. 2. It is filed as binding. As for the experimental part:
(§1) A series of RNA and DNA dilutions up to 1000 ng/mL in 1×TE buffer is added to the wells of a 96-well microplate. A series of mixture of RNA and DNA is prepared according to the following table, and is added to separate wells.
(§2) Compound 9 is added to each well at a final concentration of 400 nM. The fluorescence intensity is measured on a fluorescence plate reader with Ex/Em=620/660 nm.

In the next experiment the test system is rRNA and 1 kb DNA Ladder. Briefly: Detection of nucleic acids in electrophoretic gels (post-gel staining). It is filed as binding. The following applies: 1% agarose gel, ~1 μM dye in 1×TE, ~30 min staining, 633 nm laser, 675 nm filter. As for the experimental part: Agarose gels (1% agarose) are prepared according to a standard protocol. Serial two-fold dilutions of 1 kb DNA Ladder from Invitrogen and rRNA from Roche are prepared, and the resulting DNA and RNA samples are loaded onto an agarose gel. The DNA and RNA samples are electrophoretically separated in 1×TBE buffer using a standard protocol. A stock solution of compound 9 is diluted into ˜1 μM final concentration in 1×TE buffer. The agarose gels are incubated in the staining solutions for ˜30 min to stain the gels. The stained nucleic acid bands are recorded using Fuji FLA-3000 gel scanner, using 633 nm laser illumination, and a 675 nm filter.

Experiment [2] has as its system E. coli rRNA versus calf thymus DNA. Put plainly: Selectivity test on RNA vs dsDNA (emission spectra in TE buffer). The following applies: 10 μg/mL calf thymus DNA or E. coli rRNA in 1×TE, 5 μL of 100 μM dye per mL, excitation 620 nm, FIG. 1. The class given is binding. The procedure: A stock solution of compound 9 was prepared at 100 μM concentration in DMSO. Calf thymus DNA, and E. coli rRNA were prepared at 10 μg/mL concentration in 1×TE buffer, individually. To 1 mL of DNA solution and 1 mL of RNA solution was added with 5 μL of compound 9, individually. The emission spectrum associated with each of the solutions was scaned at excitation wavelength 620 nm.

The test system of a further experiment is mixture of RNA and DNA. Briefly: Selectivity test on a mixture of RNA and DNA (total 1000 ng/mL). It is filed as binding. The following applies: dye 400 nM, RNA+DNA total 1000 ng/mL in 1×TE, Ex/Em=620/660 nm, FIG. 2. As for the experimental part: as §1, §2
In experiment [3] the test system is mixture of RNA and DNA at 1:1 ratio. Put plainly: Selectivity test on a 1:1 mixture of RNA and DNA. The class given is binding. The following applies: dye 100 nM, RNA:DNA 1:1 up to 200 ng/mL each in 1×TE, Ex/Em=620/660 nm, FIG. 3. As for the experimental part: In another experiment, a series of RNA and DNA dilutions up to 200 ng/mL in 1×TE buffer is added to the wells of a 96-well microplate. A series of mixture of RNA and DNA at 1:1 ratio is prepared according to the following table, and is added to separate wells.
Compound 9 is added to each well at a final concentration of 100 nM. The fluorescence intensity is measured on a fluorescence plate reader with Ex/Em=620/660 nm.

The test system of another experiment is DNA marker. Put plainly: Detection of nucleic acids on microarrays, DNA spots. The following applies: ~1 μM dye in 1×TE, 5 minutes, 633 nm laser excitation. The class given is binding. The procedure: (§3) A microarray consisting of a dilution series of DNA marker and rRNA is printed on a slide using a microarray spotter. The slide is equilibrated in 1×SSC buffer to remove any excess printing buffer, and then soaked with compound 9 solution at ˜1 μM final concentration in 1×TE buffer for 5 minutes, followed by a 5 minute wash in 1×TE buffer to remove any excess compound. The slide is then imaged using a array scaner using 633 nm laser excitation.

The subject of the next experiment is calf thymus DNA. Briefly: Microplate fluorescence intensity with DNA dilutions. It is filed as binding. The following applies: dye 400 nM, DNA up to 1000 ng/mL in 1×TE, Ex/Em=620/660 nm, FIG. 2. As for the experimental part:
as §1, §2

For experiment [4], the system named is rRNA. Briefly: Detection of nucleic acids on microarrays, rRNA spots. It is filed as binding. The following applies: ~1 μM dye in 1×TE, 5 minutes, 633 nm laser excitation. The procedure:
as §3

A further experiment concerns rRNA, tRNA and mRNA. Put plainly: Selectivity test on different source of RNA. The class given is binding. The following applies: dye 400 nM, RNA up to 1000 ng/mL in 1×TE, Ex/Em=620/660 nm, FIG. 4. As for the experimental part: A series of rRNA, tRNA and mRNA dilutions up to 1000 ng/mL in 1×TE buffer is added to the wells of a 96-well microplate. Compound 9 is added to each well at a final concentration of 400 nM. The fluorescence intensity is measured on a fluorescence plate reader with Ex/Em=620/660 nm.

A further experiment deals with nucleic acids. The following applies: cited from earlier work.

The values that follow come from patent publication US9850382B1, “Unsymmetrical cyanine dyes and their application” (priority 2016, dated 2017).

Each structure is given as a SMILES string.

Take `CCN(CC)Cc1ccc(C(=C\c2sc3ccc(S(=O)(=O)NCCCS(=O)(=O)[O-])cc3[n+]2C)/C=C2\C=CN(C)c3ccccc32)cc1` [Compound 9]: the “fluorescence intensity response with RNA concentration” value in the experiment with rRNA [1] is on record as “nice linear response”. For the same compound, the “fluorescence signal of RNA bands versus corresponding DNA bands in gel” value with rRNA and 1 kb DNA Ladder is on record as “much brighter”. Further, the “selectivity for RNA versus DNA (fluorescence emission spectra)” value in experiment [2] is on record as “good selectivity”. The “fluorescence intensity of mixture of RNA and DNA compared with RNA alone” value with mixture of RNA and DNA is on record as “the same for the corresponding concentration of RNA”. Moreover, in [3], the “selectivity on RNA in a mixture of RNA and DNA” value is reported as “excellent selectivity”. Besides, in the experiment with DNA marker, the “staining of DNA spots on microarray” value is listed as “undetectable”. Moreover, the “fluorescence signal with DNA alone” value with calf thymus DNA was “little to no signal”. For the same compound, the “staining of rRNA spots on microarray” value in the experiment on rRNA [4] is “stained”. Besides, in the experiment with rRNA, tRNA and mRNA, the “fluorescent signal when associated with rRNA, tRNA and mRNA” value is given as “comparable fluorescent signal”.
`CCCN1C=C/C(=C\c2sc3ccccc3[n+]2C)c2ccccc21` [SYBR Safe]: the “detection sensitivity on nucleic acids” value with nucleic acids is “low sensitive”.
Consider `CN1C(=Cc2cc[n+](C)c3ccccc23)Sc2ccccc21` [Thiazole Orange, reference compound], for which, in the experiment with nucleic acids, the “detection sensitivity on nucleic acids” value is “low detection sensitivity”.
